Test results as given in patent publication EP1215202A1, “Intermediates for the preparation of possibly substituted 8-cyano-1-cyclopropyl-7-(2,8-diazabicyclo-(4.3.0)-nonan-8-yl)-6-fluoro-1,4-dihydro-4-oxo-3-quinolin carboxylic acids and their derivatives” (BAYER AG, priority 1996, dated 1997).
Converted amounts (≈) assume the structure as drawn.

Tests used:
Mycoplasma iowae M 95144 = test: MIC (MHK), agar serial dilution, mycoplasma read microscopically; assay type: cell-based; details: Malacoplasma iowae, M95144, Stamm M 95144, read microscopically after 5 to 7 days, read-out: MHK-Werte
[1] = test system: Pseudomonas aeruginosa P 9503; test: MIC (MHK), agar serial dilution on Iso-Sensitest agar; assay type: cell-based; details: P9503, Stamm P 9503, 37°C, read after ca. 20 h, read-out: MHK-Werte
[2] = test system: Streptococcus suis Scc 9593; test: as above; assay type: cell-based; details: SCC9593, Stamm Scc 9593, 37°C, read after ca. 20 h, read-out: MHK-Werte
[3] = test system: Streptococcus agalactiae Scc 9549; test: as above; assay type: cell-based; details: SCC9549, Stamm Scc 9549, 37°C, read after ca. 20 h, read-out: MHK-Werte
[4] = test system: Actinomyces pyogenes Am 9602; test: as above; assay type: cell-based; details: Trueperella pyogenes, AM9602, Stamm Am 9602, 37°C, read after ca. 20 h, read-out: MHK-Werte
Salmonella spp. S 9659 = test: as above; assay type: cell-based; details: SPP.S9659, Stamm S 9659, 37°C, read after ca. 20 h, read-out: MHK-Werte
Source text: (§1) Die minimalen Hemmkonzentrationen (MHK) der erfindungsgemäßen Verbindungen wurden per Reihenverdünnungsverfahren auf Iso-Sensitest Agar (Oxoid) bestimmt. Für jede Prüfsubstanz wurde eine Reihe von Agarplatten hergestellt, die bei jeweils doppelter Verdünnung abfallende Konzentrationen des Wirkstoffs enthielten. Die Agarplatten wurden mit einem Multipoint-Inokulator (Denley) beimpft. Zum Beimpfen wurden Übernachtkulturen der Erreger verwandt, die zuvor so verdünnt wurden, dass jeder Impfpunkt ca. 10^4 koloniebildende Partikel enthielt. Die beimpften Agarplatten wurden bei 37°C bebrütet, und das Keimwachstum wurde nach ca. 20 Stunden abgelesen. Der MHK-Wert (µg/ml) gibt die niedrigste Wirkstoffkonzentration an, bei der mit bloßem Auge kein Wachstum zu erkennen war. Die Erfassung der MHK-Werte für Mycoplasmen erfolgte mikroskopisch nach einer Inkubationszeit von 5 bis 7 Tagen.
(§2) In der nachstehenden Tabelle sind die MHK-Werte einer der erfindungsgemäßen Verbindungen im Vergleich zu Enrofloxacin als Referenzverbindung aufgeführt.

[5] = test system: Clostridium perfringens Cl 9606; test: microbe, parasite or virus in culture; assay type: cell-based; details: CL9606, 20 h, read-out: MHK-Werte
in vivo = test: in vivo; set-up: species or system Hunde (Beagle); details: dog, 5 mg/kg
Experimental: Die verbesserten pharmakokinetischen Eigenschaften der erfindungsgemäßen Substanz aus […] Enrofloxacin in einer Serumkinetik-Studie an Hunden gezeigt werden. Die Substanzen wurden in einer Dosierung von 5 mg/kg Körpergewicht an jeweils 6 Hunden […] Beagle geprüft. Dabei […].), intramuskulär (i. m.) und oral in […] Cross-Over-Anordnung zur Anwendung. Bei allen Applikationsarten konnte gezeigt werden, dass mit der erfindungsgemäßen Substanz aus […]1/2) und […] und somit eine größere Substanzmenge im Organismus zur […] unter der Serumspiegelkurve, AUC0-24).

[6] = test system: Fusobacterium necrophorum Ao 9620; test: MIC (MHK), agar serial dilution on Iso-Sensitest agar; assay type: cell-based; details: AO9620, Stamm Ao 9620, 37°C, read after ca. 20 h, read-out: MHK-Werte
E. coli Ec 9658 = test: as above; assay type: cell-based; details: Escherichia coli, EC9658, Stamm Ec 9658, 37°C, read after ca. 20 h, read-out: MHK-Werte
[7] = test system: Mycoplasma hyorhinis M 9557; test: MIC (MHK), agar serial dilution, mycoplasma read microscopically; assay type: cell-based; details: M9557, Stamm M 9557, read microscopically after 5 to 7 days, read-out: MHK-Werte
[8] = test system: Bordetella bronchiseptica B 9610; test: MIC (MHK), agar serial dilution on Iso-Sensitest agar; assay type: cell-based; details: B9610, Stamm B 9610, 37°C, read after ca. 20 h, read-out: MHK-Werte
Mycoplasma bovis M 9548 = test: MIC (MHK), agar serial dilution, mycoplasma read microscopically; assay type: cell-based; details: Mycoplasmopsis bovis, M9548, Stamm M 9548, read microscopically after 5 to 7 days, read-out: MHK-Werte
Source text: as §1, with “Der MHK-Wert (µg/ml) gibt die niedrigste Wirkstoffkonzentration an, bei der mit bloßem Auge kein Wachstum zu erkennen war. Die Erfassung der MHK-Werte für Mycoplasmen erfolgte mikroskopisch nach einer Inkubationszeit von 5 bis 7 Tagen.” left out
as §2

[9] = test system: Actinobacillus pleuropneumoniae App 06/94; test: MIC (MHK), agar serial dilution on Iso-Sensitest agar; assay type: cell-based; details: APP06/94, Stamm App 06/94, 37°C, read after ca. 20 h, read-out: MHK-Werte

SMILES | MIC (Mycoplasma iowae M 95144) [µg/mL] | MIC [1] [µg/mL] | MIC [2] [µg/mL] | MIC [3] [µg/mL] | MIC [4] [µg/mL] | MIC (Salmonella spp. S 9659) [µg/mL] | MIC [5] [µg/mL] | AUC(0-t) at 24 h (in vivo; im) [ng·h/mL] | Cmax (in vivo; im) [ng/mL] | MRT (in vivo; im) [h] | half-life (in vivo; im) [h] | AUC(0-t) at 24 h (in vivo; iv) [ng·h/mL] | MRT (in vivo; iv) [h] | half-life (in vivo; iv) [h] | AUC(0-t) at 24 h (in vivo; po) [ng·h/mL] | Cmax (in vivo; po) [ng/mL] | MRT (in vivo; po) [h] | half-life (in vivo; po) [h] | MIC [6] [µg/mL] | further results
N#Cc1c(N2C[C@@H]3CCCN[C@@H]3C2)c(F)cc2c(=O)c(C(=O)O)cn(C3CC3)c12 [Beispiel 1, 8-Cyan-1-cyclopropyl-7-((1S,6S)-2,8-diazabicyclo[4.3.0]nonan-8-yl)-6-fluor-1,4-dihydro-4-oxo-3-chinolincarbonsäure] | 0.06 (≈ 0.151 µM) | 0.25 (≈ 0.631 µM) | 0.06 (≈ 0.151 µM) | 0.03 (≈ 0.0757 µM) | 0.25 (≈ 0.631 µM) | 0.06 (≈ 0.151 µM) | 0.25 (≈ 0.631 µM) | 19800 | 2400 | 8.5 | 6.9 | 20000 | 11.5 | 10.5 | 17400 | 1300 | 14.7 | 9.5 | 0.03 (≈ 0.0757 µM) | 
CCN1CCN(c2cc3c(cc2F)c(=O)c(C(=O)O)cn3C2CC2)CC1 [Enrofloxacin] | 0.5 (≈ 1.39 µM) | 1 (≈ 2.78 µM) | 0.5 (≈ 1.39 µM) | 0.5 (≈ 1.39 µM) | 1 (≈ 2.78 µM) | 0.5 (≈ 1.39 µM) | 4 (≈ 11.1 µM) | 8400 | 2100 | 3.9 | 2.9 | 10400 | 4.2 | 3.7 | 7000 | 1000 | 7.3 | 4.3 | 4 (≈ 11.1 µM) | MIC (E. coli Ec 9658): 0.03 µg/mL (≈ 0.0835 µM); MIC [7]: 0.06 µg/mL (≈ 0.167 µM); MIC [8]: 0.5 µg/mL (≈ 1.39 µM); MIC (Mycoplasma bovis M 9548): 0.25 µg/mL (≈ 0.696 µM); MIC [9]: 0.06 µg/mL (≈ 0.167 µM)
